# Laboratory results: ChEMBL document CHEMBL1149414, “Vitamin D receptor: ligand recognition and allosteric network” (J Med Chem, 2006)
# How the values were obtained:
# [1] = target: T1, Vitamin D3 receptor (Homo sapiens, UniProt P11473); test: Inhibition of transactivation of human VDR in COS7 cells; type: functional, cell-based, COS-7
# T1 sequence (P11473 whole entry): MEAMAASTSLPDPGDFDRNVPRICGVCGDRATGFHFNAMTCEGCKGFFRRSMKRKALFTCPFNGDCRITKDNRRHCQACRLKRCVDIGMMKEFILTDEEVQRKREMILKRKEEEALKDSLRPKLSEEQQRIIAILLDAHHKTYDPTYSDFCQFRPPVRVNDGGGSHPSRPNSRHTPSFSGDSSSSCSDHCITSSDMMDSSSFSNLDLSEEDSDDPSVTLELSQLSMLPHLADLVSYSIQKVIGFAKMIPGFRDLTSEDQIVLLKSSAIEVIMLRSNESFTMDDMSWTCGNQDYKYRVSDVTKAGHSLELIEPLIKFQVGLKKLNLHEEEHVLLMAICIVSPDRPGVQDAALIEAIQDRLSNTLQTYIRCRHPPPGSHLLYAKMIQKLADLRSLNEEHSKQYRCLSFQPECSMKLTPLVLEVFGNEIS
# [2] = target: T1, Vitamin D3 receptor; test: Antagonistic activity against human VDR in presence of 1,25(OH)2D3; type: functional
IC50 [1] [µM],IC50 [2] [µM],Compound
0.3,–,C=C1C[C@H](C[C@@H](C)[C@H]2CC[C@H]3/C(=C/C=C4C[C@@H](O)C(=C)[C@H](O)C4)CCC[C@]23C)OC1=O
0.4,0.05,C[C@H](/C=C/C[C@H](O)C12CC3CC(CC(C3)C1)C2)[C@H]1CC[C@H]2/C(=C/C=C3C[C@@H](O)C[C@H](O)C3)CCC[C@]12C
